Results taken from ChEMBL document CHEMBL5523716, “Discovery of novel EGFR-PROTACs capable of degradation of multiple EGFR-mutated proteins” (Eur J Med Chem, 2024).

Columns and labels:
A549 = assay: Antiproliferative activity against human A549 cells harboring EGFR wild type assessed as inhibition of cell growth incubated for 48 to 72 hrs by CCK-8 assay; type: functional, cell-based
HCC827 [1] = assay: Antiproliferative activity against human HCC827 cells harboring EGFR Del19 mutant assessed as inhibition of cell growth incubated for 48 to 72 hrs by CCK-8 assay; type: functional, cell-based
[2] = Antiproliferative activity against human H1975-TM cells harboring EGFR L858R/T790M/C797S mutant assessed as inhibition of cell growth incubated for 48 to 72 hrs by CCK-8 assay; type: functional, cell-based
NCI-H1975 [3] = assay: Antiproliferative activity against human NCI-H1975 cells harboring EGFR L858R/T790M double mutant assessed as inhibition of cell growth incubated for 48 to 72 hrs by CCK-8 assay; type: functional, cell-based
A-431 = assay: Antiproliferative activity against human A-431 cells harboring EGFR wild type assessed as inhibition of cell growth incubated for 48 to 72 hrs by CCK-8 assay; type: functional, cell-based
NCI-H1975 [4] = assay: Antitumor activity against human NCI-H1975 cells xenografted in BALB/c mouse assessed as tumor growth inhibition at 10 mg/kg,ip once daily for 22 days relative to control; type: functional; settings: NCI-H1975, 528 h, time 22 day, read-out: TGI
HCC827 [5] = assay: Antitumor activity against human HCC827 cells xenografted in BALB/c mouse assessed as tumor growth inhibition at 5 mg/kg,ip once daily for 28 days relative to control; type: functional; settings: HCC827, 672 h, time 28 day, read-out: TGI

Structure (SMILES) | IC50 (A549) | IC50 (HCC827 [1]) | IC50 [2] | IC50 (NCI-H1975 [3]) | IC50 (A-431) | inhibition in vivo at 10 mg/kg (NCI-H1975 [4]) | inhibition in vivo at 5 mg/kg (HCC827 [5])
Cc1ncsc1-c1ccc(CNC(=O)[C@@H]2C[C@@H](O)CN2C(=O)[C@@H](NC(=O)COCCOCCOCCn2cc(CCCCCOc3cc4ncnc(Nc5ccc(F)c(Cl)c5)c4cc3NC(=O)/C=C/CN3CCCCC3)nn2)C(C)(C)C)cc1 | > 20 µM | 0.089 µM | > 20 µM | 2.28 µM | > 20 µM | – | –
Cc1ncsc1-c1ccc(CNC(=O)[C@@H]2C[C@@H](O)CN2C(=O)[C@@H](NC(=O)CCCCCCCCCCn2cc(COc3cc4ncnc(Nc5ccc(F)c(Cl)c5)c4cc3NC(=O)/C=C/CN3CCN(C)CC3)nn2)C(C)(C)C)cc1 | > 20 µM | 0.038 µM | > 20 µM | 14.2 µM | > 20 µM | – | –
CCN(CC)C/C=C/C(=O)Nc1cc2c(Nc3ccc(F)c(Cl)c3)ncnc2cc1OCCCCCc1cn(CCOCCOCC(=O)N[C@H](C(=O)N2C[C@H](O)C[C@H]2C(=O)NCc2ccc(-c3scnc3C)cc2)C(C)(C)C)nn1 | > 20 µM | 0.084 µM | > 20 µM | 2.85 µM | > 20 µM | – | –
CCN(CC)C/C=C/C(=O)Nc1cc2c(Nc3ccc(F)c(Cl)c3)ncnc2cc1OCCCCCc1cn(CCCCCCCC(=O)N[C@H](C(=O)N2C[C@H](O)C[C@H]2C(=O)N[C@H](C)c2ccc(-c3scnc3C)cc2)C(C)(C)C)nn1 | > 20 µM | 0.03 µM | > 20 µM | 0.96 µM | > 20 µM | – | –
Cc1ncsc1-c1ccc(CNC(=O)[C@@H]2C[C@@H](O)CN2C(=O)[C@@H](NC(=O)CCCCCCCCCn2cc(CCCCCOc3cc4ncnc(Nc5ccc(F)c(Cl)c5)c4cc3NC(=O)/C=C/CN3CCCCC3)nn2)C(C)(C)C)cc1 | 9.3 µM | 0.018 µM | > 20 µM | 9.44 µM | > 20 µM | – | –
Cc1ncsc1-c1ccc(CNC(=O)[C@@H]2C[C@@H](O)CN2C(=O)[C@@H](NC(=O)COCCOCCn2cc(CCCCCOc3cc4ncnc(Nc5ccc(F)c(Cl)c5)c4cc3NC(=O)/C=C/CN3CCCCC3)nn2)C(C)(C)C)cc1 | > 20 µM | 0.004 µM | > 20 µM | 1.93 µM | > 20 µM | – | –
COc1cc2ncnc(Nc3ccc(F)c(Cl)c3)c2cc1NC(=O)/C=C/CN1CCCCC1 [DACOMITINIB ANHYDROUS] | 0.49 µM | 0.007 µM | 7.01 µM | 0.7 µM | 1.96 µM | 67% | 90%
CCN(CC)C/C=C/C(=O)Nc1cc2c(Nc3ccc(F)c(Cl)c3)ncnc2cc1OCc1cn(CCCCC(=O)N[C@H](C(=O)N2C[C@H](O)C[C@H]2C(=O)N[C@H](C)c2ccc(-c3scnc3C)cc2)C(C)(C)C)nn1 | > 20 µM | 0.039 µM | > 20 µM | 7.46 µM | > 20 µM | – | –
Cc1ncsc1-c1ccc(CNC(=O)[C@@H]2C[C@@H](O)CN2C(=O)[C@@H](NC(=O)CCCCCCCCCCn2cc(COc3cc4ncnc(Nc5ccc(F)c(Cl)c5)c4cc3NC(=O)/C=C/CN3CCCCC3)nn2)C(C)(C)C)cc1 | > 20 µM | 0.006 µM | > 20 µM | > 20 µM | > 20 µM | – | –
Cc1ncsc1-c1ccc(CNC(=O)[C@@H]2C[C@@H](O)CN2C(=O)[C@@H](NC(=O)COCCn2cc(CCCCCOc3cc4ncnc(Nc5ccc(F)c(Cl)c5)c4cc3NC(=O)/C=C/CN3CCCCC3)nn2)C(C)(C)C)cc1 | > 20 µM | 0.169 µM | > 20 µM | 14.3 µM | > 20 µM | – | –
Cc1ncsc1-c1ccc(CNC(=O)[C@@H]2C[C@@H](O)CN2C(=O)[C@@H](NC(=O)CCCCCCCCCCn2cc(COc3cc4ncnc(Nc5ccc(F)c(Cl)c5)c4cc3NC(=O)/C=C/CN(C)C)nn2)C(C)(C)C)cc1 | > 20 µM | 0.011 µM | > 20 µM | 1.48 µM | > 20 µM | – | –
Cc1ncsc1-c1ccc(CNC(=O)[C@@H]2C[C@@H](O)CN2C(=O)[C@@H](NC(=O)CCCCn2cc(COCCOCCOCCOc3cc4ncnc(Nc5ccc(F)c(Cl)c5)c4cc3NC(=O)/C=C/CN3CCCCC3)nn2)C(C)(C)C)cc1 | > 20 µM | 0.05 µM | > 20 µM | 4.96 µM | > 20 µM | – | –
